Values of other authors, collected in US6852718B2, “Phenylsulphonylipiperazinyl derivatives as 5-HT receptor ligands” (Merck Sharp & Dohme Ltd, priority 2000, dated 2005).

Target: human dopamine D2 receptor (Homo sapiens, UniProt P14416)
Sequence (P14416 whole entry): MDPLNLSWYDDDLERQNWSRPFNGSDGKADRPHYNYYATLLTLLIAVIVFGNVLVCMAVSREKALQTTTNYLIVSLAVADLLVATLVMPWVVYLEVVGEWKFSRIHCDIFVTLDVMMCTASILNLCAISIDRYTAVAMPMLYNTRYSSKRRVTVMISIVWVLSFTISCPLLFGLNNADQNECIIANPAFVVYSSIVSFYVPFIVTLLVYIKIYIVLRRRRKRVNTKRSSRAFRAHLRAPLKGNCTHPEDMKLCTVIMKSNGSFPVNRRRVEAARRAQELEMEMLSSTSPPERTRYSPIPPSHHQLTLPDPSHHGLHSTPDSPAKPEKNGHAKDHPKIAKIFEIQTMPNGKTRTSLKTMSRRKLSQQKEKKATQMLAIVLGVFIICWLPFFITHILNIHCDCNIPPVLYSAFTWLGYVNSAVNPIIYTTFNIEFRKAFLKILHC

COc1cccc(C(O)C2CCN(CCc3ccc(F)cc3)CC2)c1OC (stereo not drawn) [MDL-100,907, (+)-α-(2,3-dimethoxyphenyl)-1-[2-(4-fluorophenyl)-ethyl]-4-piperidinemethanol]
activity at the human dopamine D2 receptor: essentially devoid of activity
